Measurements as given in patent US20070155764A1, “NOVEL SUBSTITUTED PYRIMIDINYLOXY UREAS USEFUL AS INHIBITORS OF PROTEIN KINASES” (KALYPSYS, INC., priority 2005, published 2007).

Assays:
[1] = system: HT-29 human colon carcinoma tumor cells; experiment: In vivo anti-tumor activity, HT-29 xenograft; conditions: 60 mg/kg once daily by oral gavage; for T/C (%): HT-29 subcutaneous tumors in female Balb/C nu/nu mice, treated/control average tumor size at end of study; for Survival: HT-29 tumor-bearing female Balb/C nu/nu mice, surviving/total
Experimental: In Vivo Anti-Tumor Activity
Acclimated female Balb/C nu/nu mice are injected subcutaneously into the flank with cell pellets of 5×10^6 HT-29 human colon carcinoma tumor cells (ATCC #HTB-38). The mice are fed sterile rodent chow and water ad libitum, and kept in pathogen-free, sterile-filtered cages with half-day light/dark cycles. Tumors are allowed to grow until they reach an average size of 100-150 mm^3, determined by caliper measurement. One day before beginning treatment, mice are randomized by tumor size into evenly distributed cohorts. Mice are dosed once daily by oral gavage (10 ml/kg) with compounds formulated as solutions in Cremaphor EL:Ethanol:Water, at a 1:1:6 ratio. Control mice are dosed with the formulation vehicle only. Tumor size and mouse weight are monitored every three to four days. At the end of the study, treatment efficacy is determined by the T/C value, calculated by dividing the average tumor size of a compound-treated cohort by the average tumor size of the control-treated cohort, expressed as a percentage. Therefore, anti-tumor efficacy is inversely proportional to the T/C.

[2] = biological target: T1, human B-Raf protein kinase (Homo sapiens, UniProt P15056); experiment: In vitro B-Raf/Mek1 composite kinase assay; format: biochemical; conditions: recombinant GST-tagged human B-Raf (Δ1-415) with inactive Mek1, 2 μM ATP
T1 construct: GST (N); purchased Upstate Inc. 14-530 (B-Raf); 14-420 (Mek1)
Procedure, shortened: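 Luminescent ATP-depletion assay using recombinant N-terminal GST-tagged human B-Raf (Δ1-415, 1 ng/well) in MOPS pH 7.2 buffer with 10 mM MgCl2. Compounds were preincubated 15 min at about 22° C, then the reaction ran 2 h before PKLight readout. Efficacy is expressed as percentage of positive-control (Bay 43-9006) activity.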

[3] = biological target: T2, VEGFR2 kinase (Homo sapiens, UniProt P35968); experiment: In vitro VEGFR2 kinase assay; format: biochemical; conditions: ADP Quest assay, poly Glu:Tyr substrate, 60 μM ATP
T2 construct: purchased Invitrogen Inc PV3660
Procedure, shortened: (§1)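 Compound was preincubated 10 min at ~22 °C with 20 ng VEGFR2 or 25 ng PDGFRβ, then poly Glu:Tyr (4:1) substrate (0.25 μg) with 60 μM ATP (in added buffer) was reacted 2 h at 30 °C. ADP Quest resorufin fluorescence was read (ex 530/em 580) after 30 min. Efficacy is expressed as percent of positive-control (Bay 43-9006) activity, with DMSO as negative control.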

[4] = biological target: T3, PDGFRβ kinase (Homo sapiens, UniProt P09619); experiment: In vitro PDGFRβ kinase assay; format: biochemical; conditions: ADP Quest assay, poly Glu:Tyr substrate, 60 μM ATP
T3 construct: purchased Invitrogen Inc. P3082
Procedure, shortened: as §1

T3 sequence (P09619 33-1106): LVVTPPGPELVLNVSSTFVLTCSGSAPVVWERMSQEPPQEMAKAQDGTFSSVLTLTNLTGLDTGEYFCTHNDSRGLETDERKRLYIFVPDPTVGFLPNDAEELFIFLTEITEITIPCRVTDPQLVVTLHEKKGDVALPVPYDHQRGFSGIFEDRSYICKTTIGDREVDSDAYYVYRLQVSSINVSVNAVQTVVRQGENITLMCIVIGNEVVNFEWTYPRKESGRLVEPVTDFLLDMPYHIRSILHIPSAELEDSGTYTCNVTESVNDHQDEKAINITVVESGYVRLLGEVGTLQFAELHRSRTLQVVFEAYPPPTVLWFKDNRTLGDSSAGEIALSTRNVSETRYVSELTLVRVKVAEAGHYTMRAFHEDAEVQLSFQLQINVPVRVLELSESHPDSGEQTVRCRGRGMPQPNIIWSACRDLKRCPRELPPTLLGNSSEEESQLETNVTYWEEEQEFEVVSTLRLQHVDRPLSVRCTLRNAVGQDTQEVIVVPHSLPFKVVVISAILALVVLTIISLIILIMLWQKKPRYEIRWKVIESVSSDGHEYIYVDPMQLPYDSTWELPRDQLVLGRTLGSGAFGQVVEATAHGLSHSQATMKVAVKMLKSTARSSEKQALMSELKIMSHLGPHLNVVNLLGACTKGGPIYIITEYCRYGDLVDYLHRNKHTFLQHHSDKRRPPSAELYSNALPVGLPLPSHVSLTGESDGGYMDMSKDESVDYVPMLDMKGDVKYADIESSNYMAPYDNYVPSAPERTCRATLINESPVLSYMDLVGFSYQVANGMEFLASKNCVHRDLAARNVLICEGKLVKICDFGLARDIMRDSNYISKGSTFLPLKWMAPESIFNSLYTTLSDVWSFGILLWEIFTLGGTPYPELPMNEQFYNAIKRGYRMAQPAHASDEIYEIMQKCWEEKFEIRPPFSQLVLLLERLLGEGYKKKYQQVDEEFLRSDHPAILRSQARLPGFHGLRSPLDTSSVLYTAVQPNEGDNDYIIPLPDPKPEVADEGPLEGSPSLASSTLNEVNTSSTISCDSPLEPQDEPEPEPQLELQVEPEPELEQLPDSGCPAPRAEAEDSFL
T2 sequence (P35968 20-1356): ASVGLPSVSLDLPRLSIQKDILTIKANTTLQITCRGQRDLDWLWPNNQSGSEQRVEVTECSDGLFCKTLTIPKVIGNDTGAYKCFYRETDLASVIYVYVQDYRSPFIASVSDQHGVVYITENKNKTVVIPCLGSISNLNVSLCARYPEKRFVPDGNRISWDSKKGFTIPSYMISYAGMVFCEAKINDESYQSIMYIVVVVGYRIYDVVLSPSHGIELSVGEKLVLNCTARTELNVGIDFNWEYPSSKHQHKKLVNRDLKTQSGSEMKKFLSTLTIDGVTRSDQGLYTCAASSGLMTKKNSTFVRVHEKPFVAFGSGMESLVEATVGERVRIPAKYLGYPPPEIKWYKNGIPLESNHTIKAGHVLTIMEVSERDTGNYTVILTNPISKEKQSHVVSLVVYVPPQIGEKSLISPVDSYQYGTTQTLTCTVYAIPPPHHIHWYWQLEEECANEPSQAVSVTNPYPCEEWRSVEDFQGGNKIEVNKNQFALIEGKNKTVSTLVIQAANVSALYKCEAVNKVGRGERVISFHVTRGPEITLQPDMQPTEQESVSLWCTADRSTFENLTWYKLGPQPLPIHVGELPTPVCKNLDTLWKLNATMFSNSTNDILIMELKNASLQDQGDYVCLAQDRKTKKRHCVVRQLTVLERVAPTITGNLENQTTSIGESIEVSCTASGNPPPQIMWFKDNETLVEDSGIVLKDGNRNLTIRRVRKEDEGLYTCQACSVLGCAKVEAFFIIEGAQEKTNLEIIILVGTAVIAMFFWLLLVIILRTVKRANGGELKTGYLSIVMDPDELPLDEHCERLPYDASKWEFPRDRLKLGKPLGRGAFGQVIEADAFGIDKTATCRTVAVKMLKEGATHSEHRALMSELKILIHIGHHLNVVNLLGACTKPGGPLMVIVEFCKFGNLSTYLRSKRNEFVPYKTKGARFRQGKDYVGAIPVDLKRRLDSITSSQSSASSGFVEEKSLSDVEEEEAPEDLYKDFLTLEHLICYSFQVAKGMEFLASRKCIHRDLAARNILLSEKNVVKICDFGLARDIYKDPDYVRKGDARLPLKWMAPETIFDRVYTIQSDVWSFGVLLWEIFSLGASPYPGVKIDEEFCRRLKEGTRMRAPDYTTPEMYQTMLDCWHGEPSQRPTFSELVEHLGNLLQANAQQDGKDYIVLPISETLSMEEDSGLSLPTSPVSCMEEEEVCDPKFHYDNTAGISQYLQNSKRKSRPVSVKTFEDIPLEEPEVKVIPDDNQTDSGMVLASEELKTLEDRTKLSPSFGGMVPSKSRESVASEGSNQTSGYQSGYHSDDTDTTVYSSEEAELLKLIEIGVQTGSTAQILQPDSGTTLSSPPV
T1 sequence (P15056 416-766): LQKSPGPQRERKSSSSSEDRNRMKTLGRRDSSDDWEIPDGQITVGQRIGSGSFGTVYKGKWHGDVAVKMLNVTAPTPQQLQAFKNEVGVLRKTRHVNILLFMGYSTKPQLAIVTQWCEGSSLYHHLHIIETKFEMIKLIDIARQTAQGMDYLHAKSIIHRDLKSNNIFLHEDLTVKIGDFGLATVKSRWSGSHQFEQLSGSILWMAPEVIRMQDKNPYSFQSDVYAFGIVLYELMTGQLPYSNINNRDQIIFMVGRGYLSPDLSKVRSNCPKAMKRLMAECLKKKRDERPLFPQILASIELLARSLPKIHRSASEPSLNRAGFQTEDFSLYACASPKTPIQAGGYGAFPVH

In the case of Cn1cc(-c2nccc(Oc3ccc(NC(=O)Nc4ccc(Cl)c(C(F)(F)F)c4)cc3)n2)cn1 [Example 65, 1-(4-Chloro-3-(trifluoromethyl)phenyl)-3-(4-(2-(1-methyl-1H-pyrazol-4-yl)pyrimidin-4-yloxy)phenyl)urea], the “T/C (%)” value [1] is reported as 25%, the Survival [1] is reported as 10/10 and the IC50 [2] is reported as no more than 10 µM. The IC50 [3] was no more than 10 µM and the IC50 [4] was no more than 10 µM.

With Cn1cc(-c2cc(Oc3ccc(F)c(NC(=O)Nc4ccc(Cl)c(C(F)(F)F)c4)c3)ncn2)cn1 [Example 66, 1-(4-Chloro-3-(trifluoromethyl)phenyl)-3-(2-fluoro-5-(6-(1-methyl-1H-pyrazol-4-yl)pyrimidin-4-yloxy)phenyl)urea] the “T/C (%)” value [1] was 11%, the Survival [1] was 10/10 and the IC50 [2] was no more than 10 µM. For the same compound, the IC50 [3] was no more than 10 µM and the IC50 [4] was no more than 10 µM.

With Cn1cc(-c2cc(Oc3cccc(NC(=O)Nc4ccc(C(F)(F)F)cc4)c3)ncn2)cn1 [Example 87, 1-(3-(6-(1-Methyl-1H-pyrazol-4-yl)pyrimidin-4-yloxy)phenyl)-3-(4-(trifluoromethyl)phenyl)urea] the “T/C (%)” value [1] was 15%, the Survival [1] was 10/10 and the IC50 [2] was no more than 10 µM. For the same compound, the IC50 [3] was no more than 10 µM and the IC50 [4] was no more than 10 µM.
